According to PubChem BioAssay (NCI):
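Five concentrations, 48 hours, 96-well plates. At the TGI there is no net growth.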

Legend:
Test in all cases: NCI tumour cell line growth inhibition, 48 h
MDA-MB-435 = tested on: MDA-MB-435
SF-539 CNS = tested on: SF-539 CNS
MOLT-4 leukemia = tested on: MOLT-4 leukemia
UO-31 renal = tested on: UO-31 renal
COLO 205 colon = tested on: COLO 205 colon
SK-OV-3 ovarian = tested on: SK-OV-3 ovarian
OVCAR-8 ovarian = tested on: OVCAR-8 ovarian
RXF 393 renal = tested on: RXF 393 renal
OVCAR-3 ovarian = tested on: OVCAR-3 ovarian
786-0 renal = tested on: 786-0 renal
SNB-75 CNS = tested on: SNB-75 CNS
SW-620 colon = tested on: SW-620 colon
NCI-H23 lung = tested on: NCI-H23 lung
DU-145 prostate = tested on: DU-145 prostate
RPMI-8226 leukemia = tested on: RPMI-8226 leukemia
OVCAR-4 ovarian = tested on: OVCAR-4 ovarian
ACHN renal = tested on: ACHN renal
NCI-H522 lung = tested on: NCI-H522 lung
SK-MEL-5 melanoma = tested on: SK-MEL-5 melanoma
MDA-N = tested on: MDA-N
UACC-257 melanoma = tested on: UACC-257 melanoma
HOP-92 NSCLC = tested on: HOP-92 NSCLC
NCI-H226 lung = tested on: NCI-H226 lung
A498 renal = tested on: A498 renal
NCI/ADR-RES ovarian = tested on: NCI/ADR-RES ovarian
T-47D breast = tested on: T-47D breast
M14 melanoma = tested on: M14 melanoma
U251 CNS = tested on: U251 CNS
SNB-19 CNS = tested on: SNB-19 CNS
SK-MEL-28 melanoma = tested on: SK-MEL-28 melanoma
EKVX NSCLC = tested on: EKVX NSCLC
HOP-62 NSCLC = tested on: HOP-62 NSCLC
IGROV1 ovarian = tested on: IGROV1 ovarian
HCT-15 colon = tested on: HCT-15 colon
MDA-MB-231 breast = tested on: MDA-MB-231 breast
A549 NSCLC = tested on: A549 NSCLC
MALME-3M melanoma = tested on: MALME-3M melanoma
BT-549 breast = tested on: BT-549 breast
SF-268 CNS = tested on: SF-268 CNS
KM12 colon = tested on: KM12 colon
SF-295 CNS = tested on: SF-295 CNS
OVCAR-5 ovarian = tested on: OVCAR-5 ovarian
HCT-116 colon = tested on: HCT-116 colon
HT29 colon = tested on: HT29 colon
CAKI-1 renal = tested on: CAKI-1 renal
SN12C renal = tested on: SN12C renal
LOX IMVI melanoma = tested on: LOX IMVI melanoma
NCI-H460 lung = tested on: NCI-H460 lung
TK-10 renal = tested on: TK-10 renal
K-562 leukemia = tested on: K-562 leukemia
HCC-2998 colon = tested on: HCC-2998 colon
HS 578T breast = tested on: HS 578T breast
PC-3 prostate = tested on: PC-3 prostate
UACC-62 melanoma = tested on: UACC-62 melanoma
MCF7 breast = tested on: MCF7 breast

## Cc1cnc(Cl)nc1C(C#N)c1nc2ccccc2s1 (stereo not drawn)
MDA-MB-435
  TGI: > 100 µM
SF-539 CNS
  TGI: 63.8 µM
MOLT-4 leukemia
  TGI: > 100 µM
UO-31 renal
  TGI: > 100 µM
COLO 205 colon
  TGI: 28.5 µM
SK-OV-3 ovarian
  TGI: 87.2 µM
OVCAR-8 ovarian
  TGI: > 100 µM
RXF 393 renal
  TGI: 48.1 µM
OVCAR-3 ovarian
  TGI: > 100 µM
786-0 renal
  TGI: 38.3 µM
SNB-75 CNS
  TGI: 53.5 µM
SW-620 colon
  TGI: > 100 µM
NCI-H23 lung
  TGI: 40.8 µM
DU-145 prostate
  TGI: > 100 µM
RPMI-8226 leukemia
  TGI: > 100 µM
OVCAR-4 ovarian
  TGI: > 100 µM
ACHN renal
  TGI: 42.2 µM
NCI-H522 lung
  TGI: 16.4 µM
SK-MEL-5 melanoma
  TGI: 20.1 µM
MDA-N
  TGI: 68.1 µM
UACC-257 melanoma
  TGI: > 100 µM
HOP-92 NSCLC
  TGI: 35.4 µM
NCI-H226 lung
  TGI: 84.5 µM
A498 renal
  TGI: 84.2 µM
NCI/ADR-RES ovarian
  TGI: 89.2 µM
T-47D breast
  TGI: > 100 µM
M14 melanoma
  TGI: > 100 µM
U251 CNS
  TGI: > 100 µM
SNB-19 CNS
  TGI: > 100 µM
SK-MEL-28 melanoma
  TGI: > 100 µM
EKVX NSCLC
  TGI: > 100 µM
HOP-62 NSCLC
  TGI: 54.6 µM
IGROV1 ovarian
  TGI: > 100 µM
HCT-15 colon
  TGI: > 100 µM
MDA-MB-231 breast
  TGI: > 100 µM
A549 NSCLC
  TGI: > 100 µM
MALME-3M melanoma
  TGI: 46 µM
BT-549 breast
  TGI: 51.2 µM
SF-268 CNS
  TGI: 87.8 µM
KM12 colon
  TGI: > 100 µM
SF-295 CNS
  TGI: 62.2 µM
OVCAR-5 ovarian
  TGI: 80.4 µM
HCT-116 colon
  TGI: 38.2 µM
HT29 colon
  TGI: > 100 µM
CAKI-1 renal
  TGI: 73.4 µM
SN12C renal
  TGI: 63.2 µM
LOX IMVI melanoma
  TGI: 50.7 µM
NCI-H460 lung
  TGI: > 100 µM
TK-10 renal
  TGI: 78.4 µM

## O=C1C(=C/C=C2/SC(c3ccccc3)(c3ccccc3)c3ccccc32)C(=O)c2ccccc21
MDA-MB-435
  TGI: > 100 µM
SF-539 CNS
  TGI: > 100 µM
MOLT-4 leukemia
  TGI: > 100 µM
UO-31 renal
  TGI: > 100 µM
K-562 leukemia
  TGI: > 100 µM
COLO 205 colon
  TGI: > 100 µM
SK-OV-3 ovarian
  TGI: > 100 µM
OVCAR-8 ovarian
  TGI: > 100 µM
HCC-2998 colon
  TGI: > 100 µM
RXF 393 renal
  TGI: > 100 µM
OVCAR-3 ovarian
  TGI: > 100 µM
786-0 renal
  TGI: > 100 µM
HS 578T breast
  TGI: > 100 µM
SNB-75 CNS
  TGI: > 100 µM
SW-620 colon
  TGI: > 100 µM
NCI-H23 lung
  TGI: > 100 µM
DU-145 prostate
  TGI: > 100 µM
RPMI-8226 leukemia
  TGI: > 100 µM
OVCAR-4 ovarian
  TGI: > 100 µM
ACHN renal
  TGI: > 100 µM
PC-3 prostate
  TGI: > 100 µM
NCI-H522 lung
  TGI: > 100 µM
SK-MEL-5 melanoma
  TGI: > 100 µM
MDA-N
  TGI: > 100 µM
UACC-257 melanoma
  TGI: > 100 µM
HOP-92 NSCLC
  TGI: > 100 µM
NCI-H226 lung
  TGI: > 100 µM
A498 renal
  TGI: > 100 µM
NCI/ADR-RES ovarian
  TGI: > 100 µM
M14 melanoma
  TGI: > 100 µM
U251 CNS
  TGI: > 100 µM
SNB-19 CNS
  TGI: > 100 µM
SK-MEL-28 melanoma
  TGI: > 100 µM
EKVX NSCLC
  TGI: > 100 µM
HOP-62 NSCLC
  TGI: > 100 µM
IGROV1 ovarian
  TGI: > 100 µM
HCT-15 colon
  TGI: > 100 µM
MDA-MB-231 breast
  TGI: > 100 µM
A549 NSCLC
  TGI: > 100 µM
MALME-3M melanoma
  TGI: > 100 µM
BT-549 breast
  TGI: > 100 µM
SF-268 CNS
  TGI: > 100 µM
KM12 colon
  TGI: > 100 µM
SF-295 CNS
  TGI: > 100 µM
OVCAR-5 ovarian
  TGI: > 100 µM
HCT-116 colon
  TGI: > 100 µM
HT29 colon
  TGI: > 100 µM
CAKI-1 renal
  TGI: > 100 µM
SN12C renal
  TGI: > 100 µM
LOX IMVI melanoma
  TGI: > 100 µM
NCI-H460 lung
  TGI: > 100 µM
UACC-62 melanoma
  TGI: > 100 µM
MCF7 breast
  TGI: > 100 µM
TK-10 renal
  TGI: > 100 µM
